From patent publication US20230091225A1, “Bifunctional chimeric heterocyclic compounds for targeted degradation of androgen receptors and use thereof” (HINOVA PHARMACEUTICALS INC., priority 2019, published 2023)

Target: T1, androgen receptor (AR) (Homo sapiens, UniProt P10275)
T1 sequence (P10275 1-920): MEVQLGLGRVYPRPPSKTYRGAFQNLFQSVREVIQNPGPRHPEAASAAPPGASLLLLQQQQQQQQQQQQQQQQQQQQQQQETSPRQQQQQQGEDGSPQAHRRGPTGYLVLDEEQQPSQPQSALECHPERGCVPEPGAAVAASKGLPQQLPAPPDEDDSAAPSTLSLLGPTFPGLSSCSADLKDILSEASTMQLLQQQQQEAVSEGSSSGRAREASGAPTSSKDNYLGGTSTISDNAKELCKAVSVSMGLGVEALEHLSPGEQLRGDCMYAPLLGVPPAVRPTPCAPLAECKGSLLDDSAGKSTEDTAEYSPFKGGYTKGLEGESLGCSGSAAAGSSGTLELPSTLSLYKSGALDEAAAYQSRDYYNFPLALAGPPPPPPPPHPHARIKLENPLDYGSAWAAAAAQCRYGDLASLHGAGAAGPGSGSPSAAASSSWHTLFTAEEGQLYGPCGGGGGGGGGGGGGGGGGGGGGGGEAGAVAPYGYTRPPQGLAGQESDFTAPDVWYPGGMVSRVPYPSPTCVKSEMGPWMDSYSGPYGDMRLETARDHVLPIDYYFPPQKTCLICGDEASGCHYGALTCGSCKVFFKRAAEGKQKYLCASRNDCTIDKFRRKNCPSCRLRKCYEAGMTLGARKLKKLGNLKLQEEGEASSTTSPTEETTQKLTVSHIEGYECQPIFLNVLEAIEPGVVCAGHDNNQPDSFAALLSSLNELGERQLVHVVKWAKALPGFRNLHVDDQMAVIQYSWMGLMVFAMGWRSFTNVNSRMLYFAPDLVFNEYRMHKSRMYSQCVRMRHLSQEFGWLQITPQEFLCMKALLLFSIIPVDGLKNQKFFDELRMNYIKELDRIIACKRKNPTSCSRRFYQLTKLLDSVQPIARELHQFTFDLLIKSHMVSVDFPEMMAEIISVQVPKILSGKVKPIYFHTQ
Test: Degradation of androgen receptor (AR) protein in VCaP cells by Western blot
Assay type: cell-based
Conditions: percentage of degraded AR at 100 nM, VCaP cells, 16 h
Outline: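 AR and β-actin levels were read by Western blot with ECL detection, loading 30 μg lysate protein per well. Before lysis, VCaP cells seeded at 5×10^5/well and grown overnight were exposed to compound for 16 h, two wells per concentration, keeping DMSO at 0.1%.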

inhibition at 0.1 µM	SMILES
50 to 79%	N#Cc1ccc(O[C@H]2CC[C@H](NC(=O)c3cnc(N4CCC(CN5CC6CN(c7ccc8c(c7)C(=O)N(C7CCC(=O)NC7=O)C8=O)CC6C5)CC4)cn3)CC2)cc1Cl (stereo partly shown) [Compound 254, N-((1r,4r)-4-(3-chloro-4-cyanophenoxy)cyclohexyl)-5-(4-((5-(2-(2,6-dioxopiperidin-3-yl)-1,3-dioxoisoindolin-5-yl)Hexahydropyrrolo[3,4-c]pyrrol-2(11H)-yl)methyl)piperidin-1-yl)pyrazine-2-carboxamide]
50 to 79%	N#Cc1ccc(O[C@H]2CC[C@H](NC(=O)c3cnc(N4C[C@H]5C[C@@H](N6CCN(c7cc8c(cc7F)C(=O)N(C7CCC(=O)NC7=O)C8=O)CC6)C[C@H]5C4)cn3)CC2)cc1Cl (stereo partly drawn) [Compound 293, N-((1r,4r)-4-(3-chloro-4-cyanophenoxy)cyclohexyl)-5-((3aR,5R,6aS)-5-(4-(2-(2,6-dioxopiperidin-3-yl)-6-fluoro-1,3-dioxoisoindolin-5-yl)piperazin-1-yl)hexahydrocyclopenta[c]pyrrole-2(1H)-yl)pyrazine-2-carboxamide]
25 to 49%	N#Cc1ccc(O[C@H]2CC[C@H](NC(=O)c3cnc(N4CCC(CN5CC6CN(c7ccc8c(c7)C(=O)N(C7CCC(=O)NC7=O)C8=O)CC6C5)CC4)nc3)CC2)cc1Cl (stereo partly shown) [Compound 256, N-((1r,4r)-4-(3-chloro-4-cyanophenoxy)cyclohexyl)-2-(4-((5-(2-(2,6-dioxopiperidin-3-yl)-1,3-dioxoisoindolin-5-yl)Hexahydropyrrolo[3,4-c]pyrrol-2(11H)-yl)methyl)piperidin-1-yl)pyrimidine-5-carboxamide]
< 25%	N#Cc1ccc(O[C@H]2CC[C@H](NC(=O)c3cnc(N4CCN([C@@H]5C[C@@H]6CN(c7ccc8c(c7)C(=O)N(C7CCC(=O)NC7=O)C8=O)C[C@@H]6C5)CC4)cn3)CC2)cc1Cl (stereo partly drawn) [Compound 296, N-((1r,4r)-4-(3-chloro-4-cyanophenoxy)cyclohexyl)-5-(4-((3aR,5R,6aS)-2-(2-(2,6-dioxopiperidin-3-yl)-1,3-dioxoisoindol-5-yl)octahydrocyclopenta [c]pyrrol-5-yl)piperazin-1-yl)pyrazine-2-carboxamide]
> 80%	N#Cc1ccc(O[C@H]2CC[C@H](NC(=O)c3ccc(N4CC(N5CC6CN(c7cc8c(cc7F)C(=O)N(C7CCC(=O)NC7=O)C8=O)CC6C5)C4)nn3)CC2)cc1Cl (stereo partly shown) [Compound 223, N-((1r,4r)-4-(3-chloro-4-cyanophenoxy)cyclohexyl)-6-(3-(5-(2-(2,6-dioxopiperidin-3-yl)-6-fluoro-1,3-dioxoisoindolin-5-yl)hexahydropyrrolo[3,4-c]pyrrol-2(1H)-yl)azitidin-1-yl)pyridazine-3-carboxamide]
50 to 79%	CC1(C)[C@H](Oc2ccc(C#N)c(Cl)c2)C(C)(C)[C@H]1N1Cc2nc(C#C[C@H]3CC[C@H](N4CCN(c5cc6c(cc5F)C(=O)N(C5CCC(=O)NC5=O)C6=O)CC4)CC3)ccc2C1=O (stereo partly shown) [Compound 326]

Second part, the compound before the results:

SMILES	inhibition at 0.1 µM
N#Cc1ccc(O[C@H]2CC[C@H](NC(=O)c3ccc(N4CCC(N5CC6CN(c7ccc8c(c7)C(=O)N(C7CCC(=O)NC7=O)C8=O)CC6C5)CC4)nn3)CC2)cc1Cl (stereo partly shown) [Compound 62, N-((1r,4r)-4-(3-chloro-4-cyanophenoxy)cyclohexyl)-6-(4-(5-(2-(2,6-dioxopiperidin-3-yl)-1,3-dioxoisoindolin-5-yl)hexahydropyrrolo[3,4-c]pyrrol-2(1H)-yl)piperidin-1-yl)pyridazine-3-carboxamide]	50 to 79%
N#Cc1ccc(O[C@H]2CC[C@H](NC(=O)c3ccc(N4CCC(CN5CC6(CCN(c7cc8c(cc7F)C(=O)N(C7CCC(=O)NC7=O)C8=O)C6)C5)CC4)nn3)CC2)cc1Cl (stereo partly shown) [Compound 180, N-((1r,4r)-4-(3-chloro-4-cyanophenoxy)cyclohexyl)-6-(4-((6-(2-(2,6-dioxopiperidin-3-yl)-6-fluoro-1,3-dioxoisoindolin-5-yl)-2,6-diazaspiro[3.4]octan-2-yl)methyl)piperidin-1-yl)pyridazine-3-formamide]	> 80%
N#Cc1ccc(O[C@H]2CC[C@H](NC(=O)c3ccc(N4CCC(CN5CCC6(CCN(c7cc8c(cc7F)C(=O)N(C7CCC(=O)NC7=O)C8=O)C6)C5)CC4)nn3)CC2)cc1Cl (stereo partly shown) [Compound 142, N-((1r,4r)-4-(3-chloro-4-cyanophenoxy)cyclohexyl)-6-(4-((7-(2-(2,6-dioxopiperidin-3-yl)-6-fluoro-1,3-dioxoisoindol-5-yl)-2,7-diazaspiro[4.4]nonan-2-yl)methyl)piperidin-1-yl)pyridazine-3-formamide]	> 80%
N#Cc1ccc(O[C@H]2CC[C@H](NC(=O)c3ccc(N4CCC5(CC4)CN(C4CCN(c6ccc7c(c6)C(=O)N(C6CCC(=O)NC6=O)C7=O)CC4)C5)nn3)CC2)cc1Cl (stereo partly shown) [Compound 74]	> 80%
N#Cc1ccc(O[C@H]2CC[C@H](NC(=O)c3ccc(N4C[C@@H]5[C@@H](CN6CCN(c7ccc8c(c7)C(=O)N(C7CCC(=O)NC7=O)C8=O)CC6)[C@@H]5C4)nn3)CC2)cc1Cl (stereo partly drawn) [Compound 179, N-((1r,4R)-4-(3-chloro-4-cyanophenoxy)cyclohexyl)-6-((1R,5S,6S)-6-((4-(2-(2,6-dioxopiperidin-3-yl)-1,3-dioxoisoindolin-5-yl)piperazin-1-yl)methyl)-3-azabicyclo[3.1.0]hexan-3-yl)pyridazine-3-formamide]	25 to 49%
N#Cc1ccc(O[C@H]2CC[C@H](NC(=O)c3ccc(N4C[C@H]5C[C@@H](CN6CC7CN(c8cc9c(cc8F)C(=O)N(C8CCC(=O)NC8=O)C9=O)CC7C6)C[C@H]5C4)nn3)CC2)cc1Cl (stereo partly drawn) [Compound 222, N-((1r,4r)-4-(3-chloro-4-cyanophenoxy)cyclohexyl)-6-((3aR,5R, 6aS)-5-((5-(2-(2,6-dioxopiperidin-3-yl)-6-fluoro-1,3-dioxoisoindolin-5-yl)hexahydropyrrolo[3,4-c]pyrrol-2(1H)-yl)methyl)hexahydrocyclopenta[c]pyrrole-2(1H)-yl)pyridazine-3-formamide]	> 80%
N#Cc1ccc(O[C@H]2CC[C@H](NC(=O)c3cnc(N4CCC5(CCN(C6CCN(c7cc8c(cc7F)C(=O)N(C7CCC(=O)NC7=O)C8=O)CC6)C5)C4)cn3)CC2)cc1Cl (stereo partly shown) [Compound 167, N-((1r,4r)-4-(3-chloro-4-cyanophenoxy)cyclohexyl)-5-(7-(1-(2-(2,6-dioxopiperidin-3-yl)-6-fluoro-1,3-dioxoisoindolin-5-yl)piperidine-4-yl)-2,7-diazaspiro[4.4]nonan-2-yl)pyrazine-2-carboxamide]	50 to 79%
CC1(C)[C@H](NC(=O)c2ccc(N3CCN(C[C@@H]4[C@H]5CN(c6cc7c(cc6F)C(=O)N(C6CCC(=O)NC6=O)C7=O)C[C@@H]45)CC3)nn2)C(C)(C)[C@H]1Oc1ccc(C#N)c(Cl)c1 (stereo partly shown) [Compound 101]	25 to 49%
N#Cc1ccc(OC2CC3(CC(NC(=O)c4ccc(N5CCC(CN6CCN(c7ccc8c(c7)C(=O)N(C7CCC(=O)NC7=O)C8=O)CC6)CC5)nn4)C3)C2)cc1Cl (stereo not shown) [Compound 109]	< 25%
N#Cc1ccc(O[C@H]2CC[C@H](NC(=O)c3ccc(N4CCC(CN5CCC(Nc6cc7c(cc6F)C(=O)N(C6CCC(=O)NC6=O)C7=O)CC5)CC4)nn3)CC2)cc1Cl (stereo partly shown) [Compound 139]	> 80%
